{
  "source": "patent EP4772162A1",
  "about": "“COMPOSITION FOR IMPROVING SKIN CONDITION COMPRISING PEPTIDE AS ACTIVE INGREDIENT” (Caregen Co., Ltd., priority 2023, dated 2025)",
  "key": {"[1]": {"system": "reactive oxygen species (ROS) in HaCaT cells", "experiment": "Inhibition of UV-induced generation of reactive oxygen species (DCFH-DA, FACS)", "assay_type": "cell-based, human", "details": "UVB at 15 mJ/cm^2, peptide at 10 µM, 50 µM, and 100 µM, 24 hours after irradiation, FIG. 3B", "description": "(§1) NIH3T3 cells (a mouse fibroblast cell line) and HaCaT cells (a human keratinocyte cell line) were seeded in a 6-well plate at a density of 5 x 10^5 cells/well and cultured for 24 hours. The cultured cells were washed once with serum-free DMEM. The peptide prepared in Preparation Example 1 was mixed into serum-free DMEM at each concentration to prepare medium solutions containing the peptide at 10 µM, 50 µM, and 100 µM, and the medium solutions were added to the cells. The cells to which the peptide was added were cultured for 1 hour in a CO2 incubator at 37°C. After the culture, the medium was removed from the cells, and PBS was added. Using a UV irradiator (VILBER LOURMAT, Cat. No.: 3102-BSU, France), NIH3T3 cells were irradiated with UVA at 6 J/cm^2, and HaCaT cells were irradiated with UVB at 15 mJ/cm^2. After PBS was removed, the above-described peptide-containing medium solutions at the respective concentrations were added again to the cells. The cells to which the peptide was added were cultured for 24 hours in a CO2 incubator at 37°C. After treatment with 10 µM DCFH-DA (2',7'-dichlorofluorescein diacetate), the cells were wrapped in foil and cultured for 30 minutes in a CO2 incubator at 37°C. Subsequently, the cells were washed twice with PBS and then collected, and fluorescence values were measured by FACS."}, "AQP3 (Aquaporin 3) gene": {"system": "AQP3 (Aquaporin 3) gene", "experiment": "mRNA expression of skin barrier-related genes (RT-PCR)", "assay_type": "cell-based, human", "details": "HaCaT cells; peptide at 10 µM, 50 µM, and 100 µM; 24 hours; FIG. 2", "description": "(§2) The effect of the peptide prepared in Preparation Example 1 on expression of genes related to a skin barrier was evaluated.\n(§3) HaCaT cells (a human keratinocyte cell line) were seeded in a 6-well plate at a density of 3 x 10^5 cells/well and cultured for 24 hours. The cultured cells were washed once with serum-free DMEM. The peptide prepared in Preparation Example 1 was mixed into serum-free DMEM at each concentration to prepare medium solutions containing the peptide at 10 µM, 50 µM, and 100 µM, and the medium solutions were added to the cells. The cells were cultured for 24 hours in a CO2 incubator at 37°C and washed twice with PBS, and then RNA was isolated using easy blue (iNtRON, Cat. No.: 17061, Korea). The amount of RNA was quantified, 1,000 ng of RNA was added per tube, and then cDNA synthesis was performed using an RT kit (enzynomics, Cat. No.: RT200, Korea). Thereafter, PCR was performed using a PCR kit (enzynomics, Cat. No.: P581T, Korea), with SIRT1 (Sirtuin 1) or AQP3 (Aquaporin 3) gene as a detection target."}, "SIRT1 (Sirtuin 1) gene": {"system": "SIRT1 (Sirtuin 1) gene", "experiment": "mRNA expression of skin barrier-related genes (RT-PCR)", "assay_type": "cell-based, human", "details": "HaCaT cells; peptide at 10 µM, 50 µM, and 100 µM; 24 hours; FIG. 2", "description": "as §2, §3"}, "fibronectin gene [2]": {"system": "fibronectin gene", "experiment": "Restoration of expression of extracellular matrix genes reduced by UV irradiation (RT-PCR)", "assay_type": "cell-based, mouse", "details": "NIH3T3 cells; UVA at 6 J/cm^2; peptide at 10 µM, 50 µM, and 100 µM; 6 hours after irradiation; FIG. 4", "description": "(§4) Whether the peptide of SEQ ID NO: 1 prepared in Preparation Example 1 restores expression levels of extracellular matrix genes reduced by UV irradiation was evaluated.\n(§5) NIH3T3 cells (a mouse fibroblast cell line) were seeded in a 6-well plate at a density of 5 x 10^5 cells/well and cultured for 24 hours. The cultured cells were washed once with serum-free DMEM. The peptide prepared in Preparation Example 1 was mixed into serum-free DMEM at each concentration to prepare medium solutions containing the peptide at 10 µM, 50 µM, and 100 µM, and the medium solutions were added to the cells. The cells to which the peptide was added were cultured for 1 hour in a CO2 incubator at 37°C. After the cells were cultured, the medium was removed from the cells, and PBS was added. Using a UV irradiator (VILBER LOURMAT, Cat. No.: 3102-BSU, France), the cells were irradiated with UVA at 6 J/cm^2. After PBS was removed, the above-described peptide-containing medium solutions at the respective concentrations were added again to the cells. The cells to which the peptide was added were cultured for 6 hours in a CO2 incubator at 37°C. After the cells were washed twice with PBS, RNA was isolated using easy blue (iNtRON, Cat. No.: 17061, Korea). The amount of RNA was quantified, 1,000 ng of RNA was added per tube, and then cDNA synthesis was performed using an RT kit (enzynomics, Cat. No.: RT200, Korea). Subsequently, PCR was performed using a PCR kit (enzynomics, Cat. No.: P581T, Korea), with collagen Iα1, fibronectin, or elastin gene as a detection target."}, "collagen Iα1 gene": {"system": "collagen Iα1 gene", "experiment": "Restoration of expression of extracellular matrix genes reduced by UV irradiation (RT-PCR)", "assay_type": "cell-based, mouse", "details": "NIH3T3 cells; UVA at 6 J/cm^2; peptide at 10 µM, 50 µM, and 100 µM; 6 hours after irradiation; FIG. 4", "description": "as §4, §5"}, "elastin gene [3]": {"system": "elastin gene", "experiment": "Restoration of expression of extracellular matrix genes reduced by UV irradiation (RT-PCR)", "assay_type": "cell-based, mouse", "details": "NIH3T3 cells; UVA at 6 J/cm^2; peptide at 10 µM, 50 µM, and 100 µM; 6 hours after irradiation; FIG. 4", "description": "as §4, §5"}, "fibronectin gene [4]": {"system": "fibronectin gene", "experiment": "mRNA expression of extracellular matrix component genes (RT-PCR)", "assay_type": "cell-based, mouse", "details": "NIH3T3 cells; peptide at 10 µM, 50 µM, and 100 µM; 24 hours; FIG. 1", "description": "(§6) The effect of the peptide prepared in Preparation Example 1 on expression of extracellular matrix (ECM) components was evaluated by measuring mRNA expression levels of the genes of the respective components.\nas §3, with “NIH3T3” for “HaCaT”, “mouse fibroblast” for “human keratinocyte”, “collagen Iα1, fibronectin,” for “SIRT1 (Sirtuin 1)”, “elastin” for “AQP3 (Aquaporin 3)”"}, "[5]": {"system": "collagen Iα1 (Collagen, type I, alpha 1) gene", "experiment": "mRNA expression of extracellular matrix component genes (RT-PCR)", "assay_type": "cell-based, mouse", "details": "NIH3T3 cells; peptide at 10 µM, 50 µM, and 100 µM; 24 hours; FIG. 1", "description": "as §6\nas §3, with “NIH3T3” for “HaCaT”, “mouse fibroblast” for “human keratinocyte”, “collagen Iα1, fibronectin,” for “SIRT1 (Sirtuin 1)”, “elastin” for “AQP3 (Aquaporin 3)”"}, "elastin gene [6]": {"system": "elastin gene", "experiment": "mRNA expression of extracellular matrix component genes (RT-PCR)", "assay_type": "cell-based, mouse", "details": "NIH3T3 cells; peptide at 10 µM, 50 µM, and 100 µM; 24 hours; FIG. 1", "description": "as §6\nas §3, with “NIH3T3” for “HaCaT”, “mouse fibroblast” for “human keratinocyte”, “collagen Iα1, fibronectin,” for “SIRT1 (Sirtuin 1)”, “elastin” for “AQP3 (Aquaporin 3)”"}, "MMP-1 in HaCaT cells": {"system": "MMP-1 in HaCaT cells", "experiment": "Inhibition of UV-induced MMP-1 expression (Western blot)", "assay_type": "cell-based, human", "details": "UVB at 15 mJ/cm^2, peptide at 10 µM, 50 µM, and 100 µM, 24 hours after irradiation, FIG. 6B", "description": "(§7) The effect of the peptide of SEQ ID NO: 1 prepared in Preparation Example 1 on MMP-1 expression induced by UV was evaluated.\n(§8) NIH3T3 cells (a mouse fibroblast cell line) and HaCaT cells (a human keratinocyte cell line) were seeded in a 6-well plate at a density of 5 x 10^5 cells/well and cultured for 24 hours. The cultured cells were washed once with serum-free DMEM. The peptide prepared in Preparation Example 1 was mixed into serum-free DMEM at each concentration to prepare medium solutions containing the peptide at 10 µM, 50 µM, and 100 µM, and the medium solutions were added to the cells. The cells to which the peptide was added were cultured for 1 hour in a CO2 incubator at 37°C. After the cells were cultured, the medium was removed from the cells, and PBS was added. Using a UV irradiator (VILBER LOURMAT, Cat. No.: 3102-BSU, France), NIH3T3 cells were irradiated with UVA at 6 J/cm^2, and HaCaT cells were irradiated with UVB at 15 mJ/cm^2. After PBS was removed, the above-described peptide-containing medium solutions at the respective concentrations were added again to the cells. The cells to which the peptide was added were cultured for 24 hours in a CO2 incubator at 37°C. […] After treatment with an ECL solution (GE Healthcare, Cat. No.: RPN2232, USA), expression levels were analyzed using an ImageQuant 800 instrument (Cytiva, Cat. No.: 29-3994-81, USA)."}, "MMP-1 in NIH3T3 cells": {"system": "MMP-1 in NIH3T3 cells", "experiment": "Inhibition of UV-induced MMP-1 expression (Western blot)", "assay_type": "cell-based, mouse", "details": "UVA at 6 J/cm^2, peptide at 10 µM, 50 µM, and 100 µM, 24 hours after irradiation, FIG. 6A", "description": "as §7, §8"}, "[7]": {"system": "reactive oxygen species (ROS) in NIH3T3 cells", "experiment": "Inhibition of UV-induced generation of reactive oxygen species (DCFH-DA, FACS)", "assay_type": "cell-based, mouse", "details": "UVA at 6 J/cm^2, peptide at 10 µM, 50 µM, and 100 µM, 24 hours after irradiation, FIG. 3A", "description": "as §1"}, "SIRT1 gene": {"system": "SIRT1 gene", "experiment": "Restoration of expression of skin barrier-related genes reduced by UV irradiation (RT-PCR)", "assay_type": "cell-based, human", "details": "HaCaT cells; UVB at 20 mJ/cm^2; peptide at 10 µM, 50 µM, and 100 µM; 4 hours after irradiation; FIG. 5", "description": "(§9) Whether the peptide of SEQ ID NO: 1 prepared in Preparation Example 1 restores expression levels of skin barrier-related genes reduced by UV irradiation was evaluated.\nas §5, with “HaCaT cells” for “NIH3T3 cells”, “(a human keratinocyte” for “(a mouse fibroblast”, “with UVB” for “with UVA”, “at 20 mJ/cm^2.” for “at 6 J/cm^2.”, “for 4” for “for 6”, “Korea). […]” for “Korea). Subsequently, PCR was performed using a PCR kit (enzynomics, Cat. No.: P581T, Korea), with collagen Iα1, fibronectin, or elastin gene as a detection target.”"}, "AQP3 gene": {"system": "AQP3 gene", "experiment": "Restoration of expression of skin barrier-related genes reduced by UV irradiation (RT-PCR)", "assay_type": "cell-based, human", "details": "HaCaT cells; UVB at 20 mJ/cm^2; peptide at 10 µM, 50 µM, and 100 µM; 4 hours after irradiation; FIG. 5", "description": "as §9\nas §5, with “HaCaT cells” for “NIH3T3 cells”, “(a human keratinocyte” for “(a mouse fibroblast”, “with UVB” for “with UVA”, “at 20 mJ/cm^2.” for “at 6 J/cm^2.”, “for 4” for “for 6”, “Korea). […]” for “Korea). Subsequently, PCR was performed using a PCR kit (enzynomics, Cat. No.: P581T, Korea), with collagen Iα1, fibronectin, or elastin gene as a detection target.”"}},
  "note": "Peptide text beside a SMILES is read from it.",
  "data": [
    {"smiles": "CC(C)C[C@H](NC(=O)[C@H](CC(C)C)NC(=O)[C@@H](N)CCCNC(=N)N)C(=O)N[C@@H](CC(N)=O)C(=O)O", "note": "[peptide of SEQ ID NO: 1, RLLN] (H-RLLN-OH)", "values": [
      {"measurement": "intracellular ROS levels increased by UV irradiation", "setting": "[1]", "result": "reduced"},
      {"measurement": "mRNA expression level of AQP3 (Aquaporin 3) gene", "setting": "AQP3 (Aquaporin 3) gene", "result": "increased"},
      {"measurement": "mRNA expression level of SIRT1 (Sirtuin 1) gene", "setting": "SIRT1 (Sirtuin 1) gene", "result": "increased"},
      {"measurement": "mRNA expression level of fibronectin gene reduced by UV irradiation", "setting": "fibronectin gene [2]", "result": "increased again"},
      {"measurement": "mRNA expression level of collagen Iα1 gene reduced by UV irradiation", "setting": "collagen Iα1 gene", "result": "increased again"},
      {"measurement": "mRNA expression level of elastin gene reduced by UV irradiation", "setting": "elastin gene [3]", "result": "increased again"},
      {"measurement": "mRNA expression level of fibronectin gene", "setting": "fibronectin gene [4]", "result": "increased"},
      {"measurement": "mRNA expression level of collagen Iα1 (Collagen, type I, alpha 1) gene", "setting": "[5]", "result": "increased"},
      {"measurement": "mRNA expression level of elastin gene", "setting": "elastin gene [6]", "result": "increased"},
      {"measurement": "increase in MMP-1 expression induced by UV irradiation", "setting": "MMP-1 in HaCaT cells", "result": "inhibited"},
      {"measurement": "increase in MMP-1 expression induced by UV irradiation", "setting": "MMP-1 in NIH3T3 cells", "result": "inhibited"},
      {"measurement": "intracellular ROS levels increased by UV irradiation", "setting": "[7]", "result": "reduced"},
      {"measurement": "mRNA expression level of SIRT1 gene reduced by UV irradiation", "setting": "SIRT1 gene", "result": "restored"},
      {"measurement": "mRNA expression level of AQP3 gene reduced by UV irradiation", "setting": "AQP3 gene", "result": "restored"}
    ]}
  ]
}
